Assay results published in ChEMBL document CHEMBL5136985, “Natural and synthetic β-carboline as a privileged antifungal scaﬀolds” (Eur J Med Chem, 2022).
In brackets after ≈: the same amount, converted by molar mass.

What was measured:
[1] = system: Gaeumannomyces graminis; experiment: Antifungal activity against Gaeumannomyces graminis; type: functional, organism-based
[2] = system: Botrytis cinerea; experiment: Antifungal activity against Botrytis cinerea; type: functional, organism-based
[3] = system: Bipolaris oryzae; experiment: Antifungal activity against Bipolaris oryzae; type: functional, organism-based
[4] = system: Bipolaris oryzae; experiment: Antifungal activity against Bipolaris oryzae incubated for 7 days; type: functional; conditions: 168 h, time 7 day
[5] = system: Fusarium solani; experiment: Antifungal activity against Fusarium solani relative to control; type: functional
[6] = system: Fusarium solani; experiment: Antifungal activity against Fusarium solani incubated for 72 hrs; type: functional, organism-based; conditions: time 72 hrs
[7] = system: Candida albicans; experiment: Antifungal activity against Candida albicans incubated for 24 to 48 hrs by 96-well plate method; type: functional; conditions: time 24-48 hrs
[8] = system: Cryptococcus deuterogattii; experiment: Antifungal activity against Cryptococcus gattii VGII incubated for 24 to 48 hrs by 96-well plate method; type: functional, Cryptococcus gattii species complex; conditions: time 24-48 hrs
[9] = system: Alternaria solani; experiment: Antifungal activity against Alternaria solani relative to control; type: functional; design: concentration or dose not given beside the values
[10] = system: Bipolaris maydis; experiment: Antifungal activity against Bipolaris maydis relative to control; type: functional; design: concentration or dose not given beside the values
[11] = system: Cryptococcus neoformans; experiment: Antifungal activity against Cryptococcus neoformans incubated for 24 to 48 hrs by 96-well plate method; type: functional; conditions: time 24-48 hrs
[12] = system: Saccharomyces cerevisiae; experiment: Antifungal activity against Saccharomyces cerevisiae assessed as diameter of zone inhibition at 100 ug per disk incubated for 24 hrs; type: functional; conditions: read-out: DIZ
[13] = system: Phyllosticta citricarpa; experiment: Antifungal activity Phyllosticta citricarpa against assessed as diameter of zone inhibition at 100 ug per disk incubated for 24 hrs; type: functional; conditions: read-out: DIZ
[14] = system: Colletotrichum gloeosporioides; experiment: Antifungal activity against Colletotrichum gloeosporioides assessed as diameter of zone inhibition at 100 ug per disk incubated for 24 hrs; type: functional; conditions: read-out: DIZ
[15] = system: Candida albicans; experiment: Antifungal activity against Candida albicans incubated for 24 hrs by TTC staining method; type: functional
[16] = system: Mucor hiemalis; experiment: Antifungal activity against Mucor hiemalis by 96-well plate method; type: functional
[17] = system: Botryosphaeria berengeriana; experiment: Antifungal activity against Physalospora pyricola assessed as inhibition rate of fungal growth at 50 mg/kg relative to control; type: functional
[18] = system: Botryosphaeria berengeriana; experiment: Antifungal activity against Physalospora pyricola relative to control; type: functional
[19] = system: Bipolaris maydis; experiment: Antifungal activity against Bipolaris maydis assessed as inhibition rate of fungal growth at 50 mg/kg relative to control; type: functional
[20] = system: Alternaria solani; experiment: Antifungal activity against Alternaria solani assessed as inhibition rate of fungal growth at 50 mg/kg relative to control; type: functional

COC(=O)c1cc2c([nH]c3ccccc32)c(C(N)=O)n1
EC50 [1]: 0.45 µM | EC50 [2]: 14.2 µM

CCCCCN1CCc2c([nH]c3ccccc23)C1
EC50 [3]: 110 µg/mL (≈ 454 µM)

CCCCCCCCN1CCc2c([nH]c3ccccc23)C1
MIC [4]: 28 µg/mL (≈ 98.4 µM)

CC(=O)Oc1ccc2c(c1)c1ccnc3ccc(=O)n2c31
Activity [5]: 86% | inhibition (INH) [6]: 86%

Cc1nccc2c1[nH]c1c([N+](=O)[O-])cccc12
MIC [7]: 40 µg/mL (≈ 176 µM) | MIC [8]: 40 µg/mL (≈ 176 µM) | Activity [9]: 88.9% | Activity [10]: 94.7% | MIC [11]: 40 µg/mL (≈ 176 µM)

C=Cc1nc(C(=O)O)cc2c1[nH]c1ccccc12
zone of inhibition at 100 µg/disc [12]: 9 mm | zone of inhibition at 100 µg/disc [13]: 17 mm | zone of inhibition at 100 µg/disc [14]: 16 mm

O=[N+]([O-])c1cccc(-c2nc(-c3n[nH]c(=S)o3)cc3c2[nH]c2ccccc23)c1
MIC [15]: 3.1 µg/mL (≈ 7.96 µM)

CC(C)CCCC(=O)c1nc(C(=O)O)cc2c1[nH]c1ccccc12
MIC [16]: 8.3 µg/mL (≈ 25.6 µM)

CC1NC(C(=O)N/N=C/c2ccc(Cl)c(Cl)c2)Cc2c1[nH]c1ccccc21 (configuration not stated)
inhibition in vivo at 50 mg/kg [17]: 97% | Activity [18]: 97% | inhibition in vivo at 50 mg/kg [19]: 80%

Cc1nc(/C=C/C(=O)O)cc2c1[nH]c1ccccc12
inhibition in vivo at 50 mg/kg [20]: 10.5% | Activity [10]: 9.8% | inhibition in vivo at 50 mg/kg [19]: 9.8%
